One series addresses T1, ODC (Homo sapiens, UniProt P11926).
T1 sequence (P11926 1-461): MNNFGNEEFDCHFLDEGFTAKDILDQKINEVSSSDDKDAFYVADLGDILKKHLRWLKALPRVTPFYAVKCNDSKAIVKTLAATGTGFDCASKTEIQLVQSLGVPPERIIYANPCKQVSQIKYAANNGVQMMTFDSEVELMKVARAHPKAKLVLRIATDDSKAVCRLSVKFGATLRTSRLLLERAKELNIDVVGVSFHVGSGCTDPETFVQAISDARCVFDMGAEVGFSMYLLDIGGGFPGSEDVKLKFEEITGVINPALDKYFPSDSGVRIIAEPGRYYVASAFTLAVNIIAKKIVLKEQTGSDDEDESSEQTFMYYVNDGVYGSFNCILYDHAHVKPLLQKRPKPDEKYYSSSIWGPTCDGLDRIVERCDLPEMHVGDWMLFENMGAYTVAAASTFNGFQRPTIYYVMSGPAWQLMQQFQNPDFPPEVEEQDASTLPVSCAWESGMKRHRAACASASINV
The following applies: concentrations from 0.6 μM to 80 μM; three separate studies; cited from earlier work.

Series [1] concerns PSMA messenger RNA in LNCaP prostate cancer cell line. The following applies: LNCaP cells after exposure to DHT; cited from earlier work.
Series [2] has as its system tumors harboring Ki-ras mutations. The following applies: AOM-treated rats; reduced from 90%; cited from earlier work.
Series [3] relates to polyamines (putrescine, spermidine, spermine) in the human prostate. Kind of series: Prostate core biopsy polyamine content before and after 28 days of oral DFMO. The class given is in vivo. The following applies: oral DFMO 0.5 gm/m^2 for 28 days. The source says:
This protocol was approved by the investigational review board of the University of California Irvine and the Long Beach Veterans Administration Medical Center. Men between the ages of 50 and 85, who were undergoing a trans-rectal prostate needle biopsy for either an elevated PSA or abnormal rectal exam, signed a written consent to undergo four additional core needle biopsies of the peripheral zone at the time of their, routine extant biopsy. The additional four biopsies were immediately frozen liquid nitrogen and stored in the minus 70-degree freezer. The […] biopsy was sent to Pathology for routine analysis. […] Patients were monitored for side effects using questionnaires and interview techniques. Coagulation parameters were carefully assessed prior to surgery. In the operating room just prior to the surgical procedure four trans-rectal core biopsies of the peripheral zone were taken and frozen. The pre and post DFMO specimens were sent together to Arizona on dry ice for histology and polyamine analysis. Radical prostatectomy specimens were staged according to the TMN updated 1997 staging system (American Joint Committee on Cancer 1997). To determine prostate core polyamine contents, cores were first thawed, washed in phosphate buffered saline (PBS) and weighted. Samples were then minced in 0.2 N perchloric acid and sonicated to disrupt cellular material. Samples were centrifuged at 2,000×g for 5 minutes to separate acid soluble and insoluble fractions. The acid soluble fraction was evaluated for polyamine contents, using reverse-phase, ion-pared high performance liquid chromatography (PHLC) methods, as described elsewhere ([…] et al. 1994; […] et al 1994; […] et al. 1998). Briefly, polyamines are separated on a C18 B Ondapak column, derivatized with […] separation and detected by absorption of the derivatized material at 750 nm. Mean, median, and range for polyamine levels are reported in nmol/mg protein. The limit of detection of our method is 0.01 nmol/mg. Histological Changes were assessed by bright field microscopy methods. Pre- and post DFMO polyamine values were compared using the Wilcoxon matched-pairs signed rank test. Thus, for each patient we were able to take into account both the magnitude and the direction of changes in polyamines due to DFMO.

Series [4] has as its system matrilysin expression in LNCaP human prostate cancer derived cells. Briefly: IL-1β-induced matrilysin expression in LNCaP cells. The class given is cell-based. The source says: As indicated earlier, DFMO acts late in the tumor promotion stage of epithelial carcinogenesis.
The nature of series [5]: Side effects and coagulation parameters in men taking oral DFMO. The class given is in vivo, human. The source says:
(§1) This protocol was approved by the investigational review board of the University of California Irvine and the Long Beach Veterans Administration Medical Center. Men between the ages of 50 and 85, who were undergoing a trans-rectal prostate needle biopsy for either an elevated PSA or abnormal rectal exam, signed a written consent to undergo four additional core needle biopsies of the peripheral zone at the time of their, routine extant biopsy. The additional four biopsies were immediately frozen liquid nitrogen and stored in the minus 70-degree freezer. The […] biopsy was sent to Pathology for routine analysis. […] Patients were monitored for side effects using questionnaires and interview techniques. Coagulation parameters were carefully assessed prior to surgery. In the operating room just prior to the surgical procedure four trans-rectal core biopsies of the peripheral zone were taken and frozen. The pre and post DFMO specimens were sent together to Arizona on dry ice for histology and polyamine analysis. Radical prostatectomy specimens were staged according to the TMN updated 1997 staging system (American Joint Committee on Cancer 1997).

Another series deals with PSA. Kind of series: Serum PSA in men taking oral DFMO. The format is in vivo, human.
Text: as §1

The test system of the next series is mouse epidermis. The following applies: topically applied five percent solution of DFMO; cited from earlier work.
A further series concerns the target T2, prostatic ODC (Rattus norvegicus, UniProt P09057).
T2 construct: from tissue; host or cells: rat prostate (animals treated in vivo with DFMO)
T2 sequence (P09057 1-461): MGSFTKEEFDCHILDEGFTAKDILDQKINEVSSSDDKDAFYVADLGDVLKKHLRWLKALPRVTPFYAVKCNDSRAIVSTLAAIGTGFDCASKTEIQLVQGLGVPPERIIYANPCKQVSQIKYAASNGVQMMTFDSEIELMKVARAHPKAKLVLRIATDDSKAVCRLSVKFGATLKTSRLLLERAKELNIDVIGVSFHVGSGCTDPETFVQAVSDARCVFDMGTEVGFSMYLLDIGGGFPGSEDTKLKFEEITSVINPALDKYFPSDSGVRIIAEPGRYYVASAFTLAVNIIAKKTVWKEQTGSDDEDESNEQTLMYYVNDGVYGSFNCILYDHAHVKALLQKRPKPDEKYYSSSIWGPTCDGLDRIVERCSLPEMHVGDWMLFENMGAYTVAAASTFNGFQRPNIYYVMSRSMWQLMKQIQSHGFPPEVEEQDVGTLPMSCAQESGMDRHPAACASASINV
The following applies: cited from earlier work.

For a further series, the system named is prostate tumor. The following applies: rat, in vivo, ip; cited from earlier work.
The subject of series [6] is polyamines in rat prostate. The following applies: two weeks of 100 mg/kg DFMO, cited from earlier work.
In series [7] the test system is human prostate polyamine levels and ODC activity. The following applies: cited from earlier work.
A further series relates to cutaneous spermine. The following applies: ten percent DFMO cream; ten patients suffering from psoriasis; cited from earlier work.
Series [8] has as its system prostate cancer. The following applies: one year of Proscar; 1 of 25 men with no treatment; p=0.025; cited from earlier work.
The subject of series [9] is prostate cancer. The following applies: oral fenretinide; 22 men at high risk; trial closed early; cited from earlier work.
[10] abbreviates: oral DFMO 0.5 gm/m^2, about 28 days.
Where [11] appears, read: two weeks of DFMO 0.5 gm/m^2 orally.

Structures are written as SMILES. Values joined by “and” are separate entries in the source; they are usually repeats but may differ in a detail not shown here. Equal entries are not always repeated. “Also recorded” adds a separate entry of the source.

Regarding `NCCC[C@](N)(C(=O)O)C(F)F` [L-DFMO], the “inhibition of ODC activity” value at ODC is “inhibitory”.

For the compound `C[C@]12CCC(=O)C[C@@H]1CC[C@@H]1[C@@H]2CC[C@]2(C)[C@@H](O)CC[C@@H]12` [5-α-dihydroxytestosterone], the “down-regulation of PSMA mRNA” value in [1] is on record as 8-10 fold.

Consider `CN1C(C(=O)Nc2ccccn2)=C(O)c2ccccc2S1(=O)=O` [piroxicam], for which the “number of tumors harboring Ki-ras mutations” value in series [2] is 25%.

`NCCC[C@@](N)(C(=O)O)C(F)F` [D-DFMO]: at ODC, the “inhibition of ODC activity” value was “inhibitory”.

Consider `NCCC[C@](N)(C(=O)O)C(F)F` [DFMO, alpha-difluoromethylornithine], for which the “range of spermine level after DFMO” value in [3] (n=9) lay in the range of 3.24 to 25.58 nmol/mg. For the same compound, in series [3] (n=9, p=0.004), the “spermidine average percent decrease from baseline” value is 73.6% and 74%; the “spermine average decrease from baseline” value was 50.8% and 51%. The “average level of spermine after DFMO” value in [3] (n=9, pre-DFMO average 29.14) amounted to 14.33 nmol/mg. Also, the “median level of spermine after DFMO” value in series [3] (n=9, pre-DFMO median 28.85) is given as 17.40 nmol/mg. In addition, in [3] (n=9, pretreatment average 1.21), the “average level of spermidine after therapy” value came to 0.32 nmol/mg. Besides, the “median level of spermidine after therapy” value in series [3] (n=9, pretreatment median 0.81) was 0.21 nmol/mg. For the same compound, the “putrescine level after DFMO” value in series [3] (prostate core biopsy, all nine men, detection limit 0.01 nmol/mg) is listed as “undetectable”. Moreover, the “putrescine average decrease from baseline” value in series [3] (six men with pre-DFMO putrescine ≧0.01, p=0.031) was 97.6% and 98%. For the same compound, the “interleukin-1β (IL-1β)-induced matrilysin expression” value in [4] was “suppresses”. In addition, in series [5] (setting [10]), the “bleeding time prior to surgery” value was “not altered” and the “change in platelet counts or protime” value is recorded as “no clinically significant change”. Moreover, in series [5] (oral DFMO 0.5 gm/m^2, average 28.2 days, grade 0 to 1), the “men reporting side effects” value was “four men”. For the same compound, the “PSA change on DFMO, patients with malignant pathology” value in the series with PSA (five patients, increase in patients 3,8,9) is “increased in 3 of 5”. In addition, the “PSA change on DFMO, patients with final benign pathology” value in the series with PSA (four patients (1,4,5,7), pre-biopsy or pre-DFMO PSA vs PSA on DFMO) is “decreased in each patient”. Further, the “Pre-op PSA” value in the series on PSA (individual patients 1-9, drawn while on DFMO) was 3.7 ng/ml and 7.5 ng/ml and 2.5 ng/ml and 1.4 ng/ml and 5 ng/ml and 2.3 ng/ml and 6.8 ng/ml and 35.5 ng/ml and 8.2* ng/ml. The “spermine and spermidine levels” value with mouse epidermis is on record as “not affected”. Moreover, the “prostatic ODC reduction compared to control” value at prostatic ODC (by 24 hrs, 100 mg/kg every 12 hrs i.p.) is 50%. The “sustained suppression of prostatic ODC activity, remaining activity” value on prostatic ODC (throughout the two week study) is on record as 50 % of baseline activity. The systemic toxicity entry in the series on prostate tumor is reported as “no systemic toxicity”. In addition, the “putrescine in rat prostate after DFMO” value in series [6] (control 202±37) is 4 ± 4 nmol/g. Further, the “spermine in rat prostate after DFMO” value in series [6] (control 2968±293, no significant reduction) is recorded as 2741±346. The “spermidine in rat prostate after DFMO” value in series [6] (control 7334±193) is given as 1188±289. Besides, the “number of tumors harboring Ki-ras mutations” value in series [2] is reported as 36%. Further, on ODC, the “inhibition of ODC activity” value is on record as “inhibitory”. Further, the toxicity result in series [7] (fourteen men completed two weeks of DFMO) was “no toxicity”. The “ODC activity, DFMO vs placebo” value in series [7] (two weeks of DFMO 0.5 gm/m^2) is “no differences”. Also, in series [7] (two weeks of DFMO 0.5 gm/m^2, placebo 1.95, p=0.03), the “mean putrescine level in prostate cores” value is on record as 1.43. Further, in [7] (setting [11]), the “spermidine level, DFMO vs placebo” value is on record as “no differences; also recorded: failed to detect any reduction” and the “spermine level, DFMO vs placebo” value is recorded as “no differences; also recorded: failed to detect any reduction”. In the series with cutaneous spermine, the “improvement in psoriatic lesions” value was “marginal improvement” and the “reduction of cutaneous spermine levels” value is given as “sixty-six percent”.

Take `CC(C)(C)NC(=O)[C@H]1CC[C@H]2[C@@H]3CC[C@H]4NC(=O)C=C[C@]4(C)[C@H]3CC[C@]12C` [Proscar, finasteride]: the “men with cancer diagnosed at one year follow up biopsy” value with prostate cancer [8] is 8 of 27.

As for `CC1=C(/C=C/C(C)=C/C=C/C(C)=C/C(=O)Nc2ccc(O)cc2)C(C)(C)CCC1` [fenretinide], in the series on prostate cancer [9], the “men with negative prestudy biopsies who developed malignancy while on study” value was 8 men.

These data come from patent US20040162353A1 (priority 2000, published 2004).
